# According to US20080194585A1, “Fungicidal Pyrazine Derivatives” (priority 2005, published 2008):
# Marks after values point to notes of the source that are not given here.
# Tests used:
# Plasmopara viticola = experiment: Test D: grape downy mildew, spray after inoculation of grape seedlings; format: in vivo
# Text: Upon removal, disease ratings were made. […] A dash (-) indicates no test results.
# Septoria nodorum = experiment: Test H: wheat glum blotch, preventive spray on wheat seedlings
# Procedure: (the causal agent of wheat glum blotch) and incubated in a saturated atmosphere at 20° C. for 48 h, and then moved to a growth chamber at 22° C. for 5 days, after which disease ratings were made.
# Phytophthora infestans = experiment: whole plant or invertebrate; format: in vivo
# [1] = test system: Erysiphe graminis f. sp. tritici; experiment: Test L: wheat powdery mildew, preventive spray on wheat seedlings
# Botrytis cinerea = experiment: Test E: tomato botrytis, preventive spray on tomato seedlings
# [2] = test system: Puccinia recondita f. sp. tritici; experiment: Test K: wheat leaf rust, preventive spray on wheat seedlings
# [3] = test system: Colletotrichum orbiculare; experiment: Test B: cucumber Colletotrichum anthracnose, preventive spray on cucumber seedlings; conditions: 40 ppm (marked *); 100 = 100% disease control, 0 = no control
# Pythium aphanidermatum = experiment: Test A: bluegrass pythium blight, preventive spray on bluegrass seedlings; conditions: 40 ppm (marked *); 100 = 100% disease control, 0 = no control
# Septoria tritici = experiment: Test J: wheat leaf blotch, preventive spray on wheat seedlings; format: in vivo; conditions: 40 ppm (marked *); 100 = 100% disease control, 0 = no control
# Text: A dash (-) indicates no test results.
# Rhizoctonia oryzae = experiment: Test G: turf brown patch, preventive spray on creeping bent grass seedlings; conditions: 40 ppm (marked *); 100 = 100% disease control, 0 = no control
# Procedure: (the causal agent of turf brown patch) and incubated in a saturated atmosphere at 27° C. for 24 h, and then moved to a growth chamber at 27° C. for 5 days, after which disease ratings were made.
# [4] = 40 ppm (marked *), 100 = 100% disease control, 0 = no control
SMILES,Test D disease control rating (Plasmopara viticola; 200 ppm) [%],Test H disease control rating (Septoria nodorum; 200 ppm) [%],Test F disease control rating (Phytophthora infestans; 200 ppm) [%],Test L disease control rating ([1]; 200 ppm) [%],Test E disease control rating (Botrytis cinerea; 200 ppm) [%],Test K disease control rating ([2]; 200 ppm) [%],Test B disease control rating [3],Test D disease control rating (Plasmopara viticola; [4]),Test H disease control rating (Septoria nodorum; [4]),Test F disease control rating (Phytophthora infestans; [4]),"Test L disease control rating [1, 4]",Test A disease control rating (Pythium aphanidermatum),Test E disease control rating (Botrytis cinerea; [4]),Test J disease control rating (Septoria tritici),"Test K disease control rating [2, 4]",Test G disease control rating (Rhizoctonia oryzae)
CC(C)Cn1c(-c2ccc(C(F)(F)F)cc2)c(Cl)nc(-n2cccn2)c1=O [compound 36],0,0,0,0,0,0,–,–,–,–,–,–,–,–,–,–
COc1ccc(-c2c(Cl)nc(-n3cccn3)c(=O)n2CC(C)C)cc1 [compound 37],0,100,0,0,100,89,–,–,–,–,–,–,–,–,–,–
CC(C)Cn1c(-c2ccc(OC(F)(F)F)cc2)c(Cl)nc(-n2cccn2)c1=O [compound 38],0,0,0,0,0,0,–,–,–,–,–,–,–,–,–,–
O=c1c(-n2cccn2)nc(Cl)c(-c2c(F)cccc2F)n1Cc1ccccc1F [compound 336],–,–,–,–,–,–,0* %,0* %,99* %,0* %,98* %,0* %,99* %,100* %,100* %,41* %
Cc1ccn(-c2nc(Cl)c(-c3c(F)cc(F)cc3F)n(-c3ccccc3F)c2=O)n1 [compound 355],–,–,–,–,–,–,99* %,0* %,100* %,0* %,57* %,0* %,99* %,100* %,99* %,66* %
Cc1ccn(-c2nc(Cl)c(-c3c(F)cc(F)cc3F)n(-c3cccc(F)c3)c2=O)n1 [compound 356],–,–,–,–,–,–,99* %,0* %,100* %,0* %,100* %,0* %,100* %,100* %,100* %,93* %
Cc1ccn(-c2nc(Cl)c(-c3c(F)ccc(F)c3F)n(-c3ccccc3)c2=O)n1 [compound 358],–,–,–,–,–,–,0* %,0* %,100* %,–,91* %,0* %,99* %,100* %,100* %,92* %
